In brackets after ≈: the same amount, converted by molar mass.

Assay in all cases: microbe, parasite or virus in culture
What all share (format): cell-based
Common to all, as to conditions: Mycobacterium tuberculosis

For experiment [1], the system named is M. tb H37Rv ER (ethambutol resistant).
Experiment [2] relates to M. tb H37Rv RR (rifampicin resistant).
Experiment [3] concerns M. tb H37Rv IR (isoniazid resistant).
Experiment [4] relates to M. tb H37Rv SR (streptomycin resistant).

Regarding `CC(C)OC(=O)c1ccc2c(c1)[n+]([O-])c(C(=O)C(C)C)c(C(F)(F)F)[n+]2[O-]` [Compound T-085], the MIC in experiment [1] was < 0.31 µg/mL; in experiment [2], 0.625 µg/mL (≈ 1.62 µM); in experiment [3] it was < 0.31 µg/mL; in experiment [4] it was 1.25 µg/mL (≈ 3.24 µM).

As for `CCCOC(=O)c1ccc2c(c1)[n+]([O-])c(C(=O)OC)c(C)[n+]2[O-]` [Compound T-088], the MIC in experiment [1] was < 0.31 µg/mL; in experiment [2], < 0.31 µg/mL; in experiment [3] it was 0.62 µg/mL (≈ 1.94 µM); in experiment [4] it was 0.625 µg/mL (≈ 1.95 µM).

Consider `COC(=O)c1ccc2c(c1)[n+]([O-])c(C(=O)OC)c(C)[n+]2[O-]` [Compound T-022], for which the MIC in experiment [1] is 0.62 µg/mL (≈ 2.12 µM); in experiment [2] it was < 0.31 µg/mL; in experiment [3] it was 0.62 µg/mL (≈ 2.12 µM); in experiment [4], 0.625 µg/mL (≈ 2.14 µM).

On to `CCOC(=O)c1ccc2c(c1)[n+]([O-])c(C(C)=O)c(C(F)(F)F)[n+]2[O-]` [Compound T-006], for which the MIC in experiment [1] came out at 1.25 µg/mL (≈ 3.63 µM); in experiment [2] it was 1.25 µg/mL (≈ 3.63 µM); in experiment [3] it was 1.25 µg/mL (≈ 3.63 µM); in experiment [4], 5 µg/mL (≈ 14.5 µM).

As for `CC(C)OC(=O)c1ccc2c(c1)[n+]([O-])c(C(=O)c1cccs1)c(C(F)(F)F)[n+]2[O-]` [Compound T-069], the MIC stood at 1.25 µg/mL (≈ 2.93 µM) in experiment [1], 1.25 µg/mL (≈ 2.93 µM) in experiment [2], 0.62 µg/mL (≈ 1.45 µM) in experiment [3] and 1.25 µg/mL (≈ 2.93 µM) in experiment [4].

Regarding `COC(=O)c1ccc2c(c1)[n+]([O-])c(C(=O)c1ccccc1)c(C(F)(F)F)[n+]2[O-]` [Compound T-018], the MIC in experiment [1] was determined as 0.62 µg/mL (≈ 1.58 µM); in experiment [2], 0.625 µg/mL (≈ 1.59 µM); in experiment [3], 0.62 µg/mL (≈ 1.58 µM); in experiment [4], 1.25 µg/mL (≈ 3.19 µM).

On to `CCCOC(=O)c1ccc2c(c1)[n+]([O-])c(C(=O)c1cccs1)c(C(F)(F)F)[n+]2[O-]` [Compound T-089], for which the MIC in experiment [1] was 0.625 µg/mL (≈ 1.47 µM); in experiment [2] it was 1.25 µg/mL (≈ 2.93 µM); in experiment [3], < 0.31 µg/mL; in experiment [4], 1.25 µg/mL (≈ 2.93 µM).

Turning to `CCOC(=O)c1ccc2c(c1)[n+]([O-])c(C(=O)c1cccs1)c(C(F)(F)F)[n+]2[O-]` [Compound T-011], the MIC in experiment [1] is < 0.31 µg/mL; in experiment [2], < 0.31 µg/mL; in experiment [3], < 0.31 µg/mL; in experiment [4] it was 0.625 µg/mL (≈ 1.52 µM).

With `CO[C@H]1/C=C/O[C@@]2(C)Oc3c(C)c(O)c4c(O)c(c(/C=N/N5CCN(C)CC5)c(O)c4c3C2=O)NC(=O)/C(C)=C\C=C\[C@H](C)[C@H](O)[C@@H](C)[C@@H](O)[C@@H](C)[C@H](OC(C)=O)[C@@H]1C` [RMP, rifampicin, reference compound], the MIC in experiment [1] is < 0.06 µg/mL; in experiment [2] it was > 2 µg/mL; in experiment [3] it was < 0.06 µg/mL; in experiment [4], < 0.06 µg/mL.

For the origin of these results see publication PMC6099706, “Anti-Mycobacterium tuberculosis Activity of Esters of Quinoxaline 1,4-Di-N-Oxide” (Molecules : A Journal of Synthetic Chemistry and Natural …, 2018).
